Assay results reported in PubChem BioAssay AID1963962 (Molecular Pharmacology Branch, DTP, NCI, 2024).

System: 967376-340-R-J2-PDC multicell spheroid viability
Assay: Anticancer human tumor 967376-340-R-J2-PDC patient-derived colon adenocarcinoma cell line growth inhibition [PI3K]
Settings: for IC50: curve of first compound; for viability, T/C: stronger effect = lower value
Outline: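 Three cell types, namely tumor cells, endothelial cells and mesenchymal stem cells, formed each spheroid. Combinations with four PI3K inhibitors were screened at clinically achievable concentrations decreasing by half-log, and spheroid viability was recorded.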

[1] = second compound 0.00316 µM, first compound 0.0316 µM
[2] = second compound 0.00316 µM, first compound 0.1 µM
[3] = second compound 0.00316 µM, first compound 0.316 µM
[4] = second compound 0.00316 µM, first compound 1 µM
[5] = second compound 0.00316 µM, first compound 3.16 µM
[6] = second compound 0.00316 µM, first compound 10 µM
[7] = second compound 0.01 µM, first compound 0.0316 µM
[8] = second compound 0.01 µM, first compound 0.1 µM
[9] = second compound 0.01 µM, first compound 0.316 µM
[10] = second compound 0.01 µM, first compound 1 µM
[11] = second compound 0.01 µM, first compound 3.16 µM
[12] = second compound 0.01 µM, first compound 10 µM
[13] = second compound 0.0316 µM, first compound 0.0316 µM
[14] = second compound 0.0316 µM, first compound 0.1 µM
[15] = second compound 0.0316 µM, first compound 0.316 µM
[16] = second compound 0.0316 µM, first compound 1 µM
[17] = second compound 0.0316 µM, first compound 3.16 µM
[18] = second compound 0.0316 µM, first compound 10 µM
[19] = second compound 0.1 µM, first compound 0.0316 µM
[20] = second compound 0.1 µM, first compound 0.1 µM
[21] = second compound 0.1 µM, first compound 0.316 µM
[22] = second compound 0.1 µM, first compound 1 µM
[23] = second compound 0.1 µM, first compound 3.16 µM
[24] = second compound 0.1 µM, first compound 10 µM
[25] = second compound 0.316 µM, first compound 0.0316 µM
[26] = second compound 0.316 µM, first compound 0.1 µM
[27] = second compound 0.316 µM, first compound 0.316 µM
[28] = second compound 0.316 µM, first compound 1 µM
[29] = second compound 0.316 µM, first compound 3.16 µM
[30] = second compound 0.316 µM, first compound 10 µM
[31] = second compound 1 µM, first compound 0.0316 µM
[32] = second compound 1 µM, first compound 0.1 µM
[33] = second compound 1 µM, first compound 0.316 µM
[34] = second compound 1 µM, first compound 1 µM
[35] = second compound 1 µM, first compound 3.16 µM
[36] = second compound 1 µM, first compound 10 µM
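Note: spheroids exposed to agents for 7 days before read-out.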
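Throughout, for viability, T/C: luminescence used as surrogate of cell viability.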

Compound: C#Cc1c(F)ccc2cc(O)cc(-c3ncc4c(N5CC6CCC(C5)N6)nc(OCC56CCCN5CC(F)C6)nc4c3F)c12 (stereo unspecified) + COc1c(OCCCN2CCOCC2)ccc2c3n(c(=NC(=O)c4cnc(N)nc4)nc12)CCN3
- IC50 (second compound 0.00316 µM): > 10 µM
- IC50 (second compound 0.01 µM): > 10 µM
- IC50 (second compound 0.0316 µM): > 10 µM
- IC50 (second compound 0.1 µM): 1.21 µM
- IC50 (second compound 0.316 µM): 3.64 µM
- IC50 (second compound 1 µM): < 0.0316 µM
- viability, T/C [1]: 89%
- viability, T/C [2]: 99.1%
- viability, T/C [3]: 101%
- viability, T/C [4]: 109%
- viability, T/C [5]: 91.8%
- viability, T/C [6]: 84.7%
- viability, T/C [7]: 94.2%
- viability, T/C [8]: 102%
- viability, T/C [9]: 79.2%
- viability, T/C [10]: 91.6%
- viability, T/C [11]: 77.9%
- viability, T/C [12]: 62.9%
- viability, T/C [13]: 83%
- viability, T/C [14]: 82.5%
- viability, T/C [15]: 81.5%
- viability, T/C [16]: 77.1%
- viability, T/C [17]: 81.8%
- viability, T/C [18]: 57.3%
- viability, T/C [19]: 68.4%
- viability, T/C [20]: 61.8%
- viability, T/C [21]: 58.1%
- viability, T/C [22]: 48.8%
- viability, T/C [23]: 47.1%
- viability, T/C [24]: 49%
- viability, T/C [25]: 56.1%
- viability, T/C [26]: 48.2%
- viability, T/C [27]: 53.7%
- viability, T/C [28]: 42.3%
- viability, T/C [29]: 63.6%
- viability, T/C [30]: 29.8%
- viability, T/C [31]: 42.9%
- viability, T/C [32]: 40.9%
- viability, T/C [33]: 44.2%
- viability, T/C [34]: 40%
- viability, T/C [35]: 40.7%
- viability, T/C [36]: 18.6%

Compound: C=CC(=O)N1CCN(c2nc(=O)n(-c3c(C)ccnc3C(C)C)c3nc(-c4c(O)cccc4F)c(F)cc23)C(C)C1 (stereo unspecified) + COc1c(OCCCN2CCOCC2)ccc2c3n(c(=NC(=O)c4cnc(N)nc4)nc12)CCN3
- IC50 (second compound 0.00316 µM): > 10 µM
- IC50 (second compound 0.01 µM): > 10 µM
- IC50 (second compound 0.0316 µM): > 10 µM
- IC50 (second compound 0.1 µM): > 10 µM
- IC50 (second compound 0.316 µM): < 0.0316 µM
- IC50 (second compound 1 µM): < 0.0316 µM
- viability, T/C [1]: 112%
- viability, T/C [2]: 101%
- viability, T/C [3]: 91.7%
- viability, T/C [4]: 92.6%
- viability, T/C [5]: 111%
- viability, T/C [6]: 70.2%
- viability, T/C [7]: 95.5%
- viability, T/C [8]: 97.8%
- viability, T/C [9]: 90.8%
- viability, T/C [10]: 80.4%
- viability, T/C [11]: 84.8%
- viability, T/C [12]: 73.5%
- viability, T/C [13]: 74%
- viability, T/C [14]: 81.7%
- viability, T/C [15]: 73.1%
- viability, T/C [16]: 70.3%
- viability, T/C [17]: 85.6%
- viability, T/C [18]: 79.8%
- viability, T/C [19]: 55.3%
- viability, T/C [20]: 78.6%
- viability, T/C [21]: 63.9%
- viability, T/C [22]: 66%
- viability, T/C [23]: 84%
- viability, T/C [24]: 52%
- viability, T/C [25]: 50.5%
- viability, T/C [26]: 41%
- viability, T/C [27]: 41.3%
- viability, T/C [28]: 40.3%
- viability, T/C [29]: 50.1%
- viability, T/C [30]: 42.6%
- viability, T/C [31]: 33.6%
- viability, T/C [32]: 36%
- viability, T/C [33]: 29.6%
- viability, T/C [34]: 34.5%
- viability, T/C [35]: 37.9%
- viability, T/C [36]: 39.5%

Compound: CC(Cn1ccc(-c2ccc(C#N)c(Cl)c2)n1)NC(=O)c1cc(C(C)O)[nH]n1 (stereo unspecified) + COc1c(OCCCN2CCOCC2)ccc2c3n(c(=NC(=O)c4cnc(N)nc4)nc12)CCN3
- IC50 (second compound 0.00316 µM): > 10 µM
- IC50 (second compound 0.01 µM): > 10 µM
- IC50 (second compound 0.0316 µM): > 10 µM
- IC50 (second compound 0.1 µM): > 10 µM
- IC50 (second compound 0.316 µM): 0.0954 µM
- IC50 (second compound 1 µM): < 0.0316 µM
- viability, T/C [1]: 109%
- viability, T/C [2]: 117%
- viability, T/C [3]: 79.6%
- viability, T/C [4]: 93.6%
- viability, T/C [5]: 110%
- viability, T/C [6]: 86%
- viability, T/C [7]: 91.2%
- viability, T/C [8]: 77%
- viability, T/C [9]: 76.8%
- viability, T/C [10]: 91.6%
- viability, T/C [11]: 82.7%
- viability, T/C [12]: 86.1%
- viability, T/C [13]: 81.7%
- viability, T/C [14]: 88.1%
- viability, T/C [15]: 61.9%
- viability, T/C [16]: 57.7%
- viability, T/C [17]: 76.4%
- viability, T/C [18]: 63.8%
- viability, T/C [19]: 78.6%
- viability, T/C [20]: 54.4%
- viability, T/C [21]: 59.4%
- viability, T/C [22]: 67.5%
- viability, T/C [23]: 70.5%
- viability, T/C [24]: 59.5%
- viability, T/C [25]: 64.2%
- viability, T/C [26]: 44.9%
- viability, T/C [27]: 48.2%
- viability, T/C [28]: 46.1%
- viability, T/C [29]: 57.4%
- viability, T/C [30]: 50.3%
- viability, T/C [31]: 36.6%
- viability, T/C [32]: 42.4%
- viability, T/C [33]: 26.6%
- viability, T/C [34]: 47.1%
- viability, T/C [35]: 34.4%
- viability, T/C [36]: 32.6%
